In PMC7587962, “Evaluation of Cytotoxicity and α-Glucosidase Inhibitory Activity of Amide and Polyamino-Derivatives of Lupane Triterpenoids” (Molecules, 2020):
Read-outs that look alike come from different tables or passages of the source.

Tests used:
SR = experiment: NCI-60 SRB screen: leukemia SR; type: cell-based; conditions: Homo sapiens, 48 h, single dose 10 µM, read-out: Percentage Cell Growth
Yeast α-Glucosidase = experiment: Yeast α-glucosidase activity assay; type: biochemical, S. cerevisiae; conditions: pH 6.8, 37 °C, p-nitrophenyl-α-D-glucopyranoside 1 mM; read-out: Yeast α-Glucosidase, IC50 ± SE
Procedure: (§1) Taken together, these considerations prompted us to evaluate a series of lupanes with amide function or polyamine chain 11, 12, 16, 18, and 22–26 for α-glucosidase inhibition. Initially, they were screened against α-glucosidase of S. cerevisiae as an accessible and high-throughput model. Confirmatory experiments were performed on isolated rough endoplasmic reticulum vesicles from rat liver, which contain neutral α-glucosidases I and II in a membrane-bound form.
In a 96-well flat transparent plate, the 0.12 U/mL enzyme solution (EC 3.2.1.20, expressed in S. cerevisiae, Sigma #G0660, St. Louis, MO, USA) was incubated with test compounds in 67 mM PBS (pH 6.8) at 37 °C for 5 min. Then, p-nitrophenyl-α-D-glucopyranoside (Sigma #N1377, St. Louis, MO, USA) was added to 1 mM final concentration and an increase in absorbance was recorded for 15 min at 405 nm wavelength with Infinite M200 PRO microplate reader (Tecan, Austria). Test compounds were dissolved in DMSO and diluted to the desired concentration in 67 mM PBS (pH 6.8) supplemented with 0.01% Tween 80 to avoid aggregation. Final DMSO concentration was <0.25% in sample wells, and it was also introduced in control and blank wells. […] Due to the absence of normal distribution of data, a Mann–Whitney U-test was used to determine statistical significance versus enzyme control using GraphPad Prism 8.0.1.

[1] = system: Rat Liver ER Neutral α-Glucosidase; experiment: Endoplasmic reticulum α-glucosidase activity assay; type: biochemical
Description: as §1, with “Betulinic acid inhibits yeast α-glucosidase activity and interferes with N-linked glycan modifications to cell-surface intercellular adhesion molecule-1 (ICAM-1) in human lung carcinoma A549 cells in a similar manner to castanospermine, an inhibitor of endoplasmic reticulum α-glucosidases I and II [66]. […] Taken” for “Taken”
Endoplasmic reticulum was isolated from hepatocytes of decapitated male Sprague-Dawley rats, which were starved overnight and sacrificed the next morning. All experiments were approved by Volgograd regional ethic committee. The whole procedure was performed at 4 °C. In brief, a fresh tissue sample from an animal was washed twice with 10 mL of PBS to remove residual blood. The tissue was placed on a paper towel in order to absorb excess liquid and blood clots, if present. It was cut further into small pieces (1.5–2 cm) and washed once more. […] Homogenate was centrifuged at 1000× g for 10 min at 4 °C. After removal of the floating lipid layer by aspiration, supernatant was separated and centrifuged at 12,000× g for 15 min. at 4 °C. The supernatant fraction, which is the post mitochondrial fraction (PMF), was used for isolation of rough endoplasmic reticulum (RER) enriched microsomes by precipitation with 8 mM CaCl2 added dropwise. The final concentration of CaCl2 was 7 mM. Resulting sample was centrifuged at 8000 g for 10 min. at 4 °C. The supernatant was discarded, and the pellet was suspended in isotonic extraction buffer (0.3 mL of buffer for each g of original tissue). The suspension was homogenized completely to afford RER enriched microsomes. In a 96-well flat transparent plate 25 µL of the isolated RER microsomes were incubated with 50 µL of test compounds in 67 mM PBS (pH 6.8) at 37 °C for 10 min. Then, p-nitrophenyl-α-D-glucopyranoside (Sigma #N1377, St. Louis, MO, USA) was added to 1 mM final concentration and increase in absorbance was recorded for 42 min at 405 nm wavelength with Infinite M200 PRO microplate reader (Tecan, Austria). Concentration of RER microsomes was adjusted to achieve an increase in optical density of ~0.2 in control samples after 30 min. of incubation. Test compounds were prepared as described above for the yeast α-glucosidase assay.

[2] = system: methicillin-resistant Staphylococcus aureus (MRSA); experiment: Antibacterial growth inhibition, S. aureus; type: cell-based; conditions: for inhibition at 32 µg/mL: Staphylococcus aureus, ATCC 43300 / MRSA, S. aureus Strain ATCC 43300
Escherichia coli = experiment: Antibacterial growth inhibition, E. coli; type: cell-based; conditions: ATCC25922, E. coli Strain ATCC 25922
Klebsiella pneumonia = experiment: Antibacterial growth inhibition, K. pneumonia; type: cell-based; conditions: Klebsiella pneumoniae, ATCC700603, K. pneumonia Strain ATCC 700603
Pseudomonas aeruginosa = experiment: Antibacterial growth inhibition, P. aeruginosa; type: cell-based; conditions: P. aeruginosa Strain 19606
Acinetobacter baumannii = experiment: Antibacterial growth inhibition, A. baumannii; type: cell-based; conditions: ATCC27853, A. baumannii Strain ATCC 27853
[3] = system: 60 human tumor cell lines; experiment: cells
Candida albicans = experiment: Antifungal growth inhibition, C. albicans; conditions: ATCC90028, read-out: % Growth inhibition
Procedure: (§2) The antifungal activity was determined against Candida albicans and Cryptococcus neoformans.
(§3) Samples were prepared in DMSO and water to a final testing concentration of 32 µg/mL, in 384-well, non-binding surface plate (NBS) for each bacterial/fungal strain, and in duplicate (n = 2) and keeping the final DMSO concentration to a maximum of 1% DMSO. All the sample-preparation was done using liquid handling robots.
(§4) Fungi strains were cultured for 3 days on Yeast Extract-Peptone Dextrose (YPD) agar at 30 °C. A yeast suspension of 1 × 10^6 to 5 × 10^6 CFU/mL (as determined by OD530) was prepared from five colonies. The suspension was subsequently diluted and added to each well of the compound-containing plates giving a final cell density of fungi suspension of 2.5 × 10^3 CFU/mL and a total volume of 50 µl. All plates were covered and incubated at 35 °C for 24 h without shaking.
(§5) The absorbance was measured using a Biotek Synergy HTX plate reader. The percentage of growth inhibition was calculated for each well, using negative control (media only) and positive control (fungi without inhibitors) on the same plate. The significance of the inhibition values was determined by modified Z-scores, calculated using the median and MAD of the samples (no controls) on the same plate. Samples with an inhibition value above 80% and Z-score above 2.5 for either replicate (n = 2 on different plates) were classed as actives. Samples with inhibition values between 50% and 80% and a Z-score above 2.5 for either replicate were classed as partial actives.

Cryptococcus neoformans = experiment: Antifungal growth inhibition, C. neoformans; parameters: activity class in primary screening: dose or concentration left out as unconfirmed; conditions: for inhibition at 32 µg/mL: Cryptococcus neoformans, ATCC208821, read-out: % Growth inhibition
Procedure: as §2, §3, §4, §5

[4] = system: pathogenic microorganisms; experiment: Primary antimicrobial screening, five bacterial strains and two fungi; parameters: dose or concentration left out as unconfirmed
Procedure: The antifungal activity was determined against Candida albicans and Cryptococcus neoformans. […] Samples with inhibition value above 80% were classed as actives. Samples with inhibition values between 50 and 80% were classed as partial actives.
as §3
All bacteria were cultured in cation-adjusted Mueller Hinton broth (CAMHB) at 37 °C overnight. A sample of each culture was then diluted 40-fold in fresh broth and incubated at 37 °C for 1.5–3 h. The resultant mid-log phase cultures were diluted (CFU/ ml measured by OD600), then added to each well of the compound containing plates, giving a cell density of 5 × 10^5 CFU/mL and a total volume of 50 µl. All the plates were covered and incubated at 37 °C for 18 h without shaking.
Inhibition of bacterial growth was determined measuring absorbance at 600 nm (OD600), using a Tecan M1000 Pro monochromator plate reader. The percentage of growth inhibition was calculated for each well, using negative control (media only) and positive control (bacteria without inhibitors) on the same plate as references. The significance of the inhibition values was determined by modified Z-scores, calculated using the median and MAD of the samples (no controls) on the same plate. Samples with inhibition value above 80% and Z-score above 2.5 for either replicate were classed as actives. […]
Fungi strains were cultured for 3 days on Yeast Extract-Peptone Dextrose (YPD) agar at 30 °C. A yeast suspension of 1 × 10^6 to 5 × 10^6 CFU/mL (as determined by OD530) was prepared from five colonies. […]
The absorbance was measured using a Biotek Synergy HTX plate reader. The percentage of growth inhibition was calculated for each well, using negative control (media only) and positive control (fungi without inhibitors) on the same plate. […]

Compound | activity at 10 µM (SR) | IC50 (Yeast α-Glucosidase) | Rat Liver ER Neutral α-Glucosidase Inhibition, m ± SD ([1]; 10 μM) | Rat Liver ER Neutral α-Glucosidase Inhibition, m ± SD ([1]; 100 μM) | inhibition at 32 µg/mL [2] | inhibition at 32 µg/mL (Escherichia coli) | inhibition at 32 µg/mL (Klebsiella pneumonia) | inhibition at 32 µg/mL (Pseudomonas aeruginosa) | inhibition at 32 µg/mL (Acinetobacter baumannii) | activity at 10 µM ([3]; read-out: Mean Growth, %) | activity at 10 µM ([3]; read-out: Range of Growth, %) | inhibition at 32 µg/mL (Candida albicans) | inhibition at 32 µg/mL (Cryptococcus neoformans) | inhibition of growth of pathogenic microorganisms [4] | activity class in primary screening ([2]; methicillin-resistant S. aureus, one concentration of 32 µg/mL) | activity class in primary screening (Cryptococcus neoformans; C. neoformans, one concentration)
C=C(C)[C@@H]1CC[C@]2(C(=O)OC)CC[C@]3(C)[C@H](CC[C@@H]4[C@@]5(C)C/C(=C/NC(N)=O)C(=O)C(C)(C)[C@@H]5CC[C@]43C)[C@@H]12 [Compound 25] | 21.2% | 53.3 ± 5.7 µM | 8.76 ± 9.63% | 9.62 ± 6.94% | 19.8% | -5.34% | 2.44% | -8.92% | 40.9% | 91.7% | 21.2 to 112% | 14% | -7.93% | did not inhibit the growth | – | –
C=C(C)[C@@H]1CC[C@]2(C(=O)N3CCCNCC3)CC[C@]3(C)[C@H](CC[C@@H]4[C@@]5(C)CCC(=O)C(C)(C)[C@@H]5CC[C@]43C)[C@@H]12 [Compound 2, 28-(1,4-Diazepan-1-yl)-28-oxolup-20(29)-en-3-one] | 8.04% | – | – | – | 40.3% | 1.96% | 0.98% | 8.34% | 33.1% | 89.5% | 8.04 to 127% | 4.14% | -5.9% | did not inhibit the growth | – | –
C=C(C)[C@@H]1CC[C@]2(C(=O)OC)CC[C@]3(C)[C@H](CC[C@@H]4[C@@]5(C)C/C(=C/NC(N)=S)C(=O)C(C)(C)[C@@H]5CC[C@]43C)[C@@H]12 [Compound 26] | – | > 100 µM | 11.63 ± 9.09% | 26.60 ± 13.03% | 12.7% | -7.03% | -3.89% | -4.64% | 28.2% | 90.5% | 60.9 to 126% | 5.83% | -13% | did not inhibit the growth | – | –
C=C(C)[C@@H]1CC[C@]2(C(=O)NCCNCCN)CC[C@]3(C)[C@H](CC[C@@H]4[C@@]5(C)CCC(=O)C(C)(C)[C@@H]5CC[C@]43C)[C@@H]12 [Compound 12] | – | > 100 µM | 10.21 ± 3.49% | 23.59 ± 1.34 % | 71.8% | -9.57% | 9.2% | 7.72% | 19.5% | 98.9% | 59.1 to 141% | 11.7% | 62.6% | – | partial activity | partial activity
